Measured values published in patent US7202024B2, “bbc3 Gene promoter and methods for identifying modulators of apoptosis and bbc3 gene expression using a bbc3 gene promoter” (Immunogen Inc., priority 2001, dated 2007).
Peptide text beside a SMILES is read from it. * marks the point of attachment. Cbz = O=C(OCc1ccccc1)*; CH2F = FC*

Assays:
bbc3 mRNA [1] = assay: Northern blot of bbc3 mRNA in E1a/Ras/p53MER mouse fibroblast cell line; assay type: cell-based; conditions: p53-estrogen receptor fusion cells, 4-OHT 100 nM, 5 hours
Excerpt: (§1) Northern blots were hybridized with a murine bbc3 cDNA probe, followed by re-hybridization with an actin probe.
Cell death induced by etoposide and other DNA-damaging drugs in murine fibroblasts is mediated, at least in part, by the p53 tumor suppressor (Levine, A. J., Cell 88:323–31 (1997); Vousden, K. H., Cell 103:691–4 (2000)).
(§2) All cell lines used were obtained from ATCC, unless otherwise noted. HeLa/Bcl-XL cells were generated by stable transfection of HeLa cells with a vector encoding a Flag-epitope tagged BCl-xL. Murine myeloid leukemia M1 cells containing a temperature sensitive p53-val135 mutant (M1p53ts), and E1A/ras transformed p53^−/−mouse embryonic fibroblasts containing a p53-estrogen receptor fusion, have been described previously (Vater, C. A., et al., Oncogene 13:739–48 (1996); Yonish-Rouach, E., et al., Nature 352:345–7 (1991)).
(§3) Total RNA was isolated from mouse thymocytes (RNeasy system, Qiagen). Poly(A)+RNA (FastTract system, Invitrogen) was prepared in all other experiments. 10 μg of total RNA or 3 μg of poly(A)+RNA per lane was denatured and separated by electrophoresis in 1% formaldehyde agarose gels. Northern blotting was performed following standard methods.

Bbc3 protein [2] = assay: Western blot of Bbc3 protein in HT29 cells; assay type: cell-based, human; conditions: for ability of serum to suppress Bbc3 protein levels: HT29 cells in serum, 50 μM LY294002, 10 μM PD98059, 30 μM AG1478 or 50 μM AG1024; for ability of serum to suppress Bbc3 protein levels / Bbc3 protein expression: 24 hrs; for Bbc3 protein expression: 100 ng/ml IGF-1, 50 ng/ml EGF or 25 ng/ml PDGF
Experimental: (§4) HT29 cells were incubated for one day in the absence of serum (−), and then incubated in media containing either serum, 100 ng/ml IGF-1, 50 ng/ml EGF, or 25 ng/ml PDGF, for 24 hrs. Bbc3 was detected by western blot analysis, followed by sequential probing of the blot with anti-Bax and anti-Bcl-xL antibodies.
HT29 cells were cultured as in FIG. 6B and then incubated for 24 hrs in media containing either serum, 100 ng/ml IGF-1, or 100 ng/ml IGF-1 in the presence of 50 μM LY294002 (added 1 hr prior to IGF-1). Bbc3 was detected by western blot analysis.
HT29 cells were grown in the presence of serum (lane 1), and then incubated for 24 hrs in the absence of serum, or in the presence of serum supplemented with 50 μMLY294002.
HT29 cells were incubated for one day in the absence of serum (−), and then incubated in media containing either serum, 50 ng/ml EGF, or 50 ng/ml EGF+30 nM AG1478, for 24 hrs. Bbc3 was detected by western blot analysis.
HT29 cells were cultured in the presence of serum for one day (+) and then incubated for 24 hrs with serum or without serum, or in the presence of serum supplemented with either 10 μM PD98059, 30 μM AG1478, or 50 μM AG1024. Bbc3 was detected by western blot analysis, followed by reprobing of the blot with anti-Bax.
(§5) A mouse monoclonal antibody, KM140, was made against a recombinant GST-Bbc3 fusion protein. The KM140 epitope was mapped to residues 73–76 by probing a blot with arrayed overlapping Bbc3 peptides (Research Genetics). Cells were plated at 3–10×10^6 cells per 100 mm dish in either serum containing (10% FBS), or serum free media (0% FBS, 0.1% BSA). Cell lysates were prepared, electrophoresed (100 to 200 μg per lane) on 4–20% polyacrylamide reducing gels, and analyzed by western blotting as described previously (Chittenden, T., et al., EMBO J. 14:5589–96 (1995)).

bbc3 mRNA [3] = assay: Northern blot of bbc3 mRNA in NIH3T3 cells; assay type: cell-based, murine; conditions: etoposide 50 μM, 6 hours
Experimental: as §1
To evaluate whether the activity of bbc3 might be under transcriptional control, the expression of bbc3 was examined in response to apoptotic stimuli likely to involve new mRNA/protein synthesis.
as §3

Bbc3 protein [4] = assay: Western blot of Bbc3 in serum-starved Jurkat cells; assay type: cell-based, human; conditions: without serum 24 hrs, z-VAD 100 μM
Excerpt: (§6) Bbc3 and PARP were detected by western blot analysis.
(§7) Deprivation of serum is a strong pro-apoptotic stimulus for many cultured tumor cell lines, triggering cell death or sensitizing cells to other apoptotic stimuli. Thus, the effect of serum deprivation on bbc3 mRNA expression and Bbc3 protein levels was also examined, using a monoclonal antibody generated against recombinant human Bbc3. A striking increase in Bbc3 protein levels was observed upon serum deprivation in multiple human tumor cell lines (FIG. 5B), including cell lines that lack functional p53. […] Therefore, the induction of Bbc3 precedes caspase activation, and is not simply a response to the engagement of the cell death program.
as §5

PARP = assay: Western blot of PARP cleavage in serum-starved Jurkat cells; assay type: cell-based, human; conditions: without serum 24 hrs, z-VAD 100 μM
Excerpt: as §6, §7, §5

GST-Bcl-xL = GST-Bcl-xL (Homo sapiens, UniProt Q07817); assay: Bcl-xL competition binding assay (ELISA, immobilized Bak BH3 peptide); conditions: competition with immobilized Bak BH3 peptide
Experimental: Binding of GST-Bcl-xL to an immobilized Bak BH3 peptide was measured by ELISA (triplicate samples, +S.D.), in the presence of the indicated concentrations of a competing synthetic Bbc3 BH3 or Bak BH3 peptide.
Cell lysates were prepared and co-immunoprecipitation assays were performed as described previously (Chittenden, T., et al., EMBO J. 14:5589–96 (1995)). The Bcl-xL competition binding assay was performed as previously described (Zhou, X. M., et al., J. Biol. Chem. 275:25046–51 (2000)), using synthetic BH3 peptides comprising residues 133–152 of Bbc3, and residues 70–89 of Bak.

Bax = assay: Western blot of Bax in HT29 cells; assay type: cell-based, human; conditions: serum-starved HT29 cells, 24 hrs; 100 ng/ml IGF-1 or 50 ng/ml EGF
Experimental: as §4, §5

Bcl-xL = assay: Western blot of Bcl-xL in HT29 cells; assay type: cell-based, human; conditions: serum-starved HT29 cells, 24 hrs; 100 ng/ml IGF-1 or 50 ng/ml EGF
Experimental: as §4, §5

bbc3 gene promoter = bbc3 gene promoter luciferase reporter assay (pGL3/0.9) in HeLa/Bcl-xL cells; assay type: cell-based, human; conditions: pGL3/0.9, no serum, 100 ng/ml IGF-1, 24 hrs
Experimental: The pGL3/0.9 bbc3 gene promoter luciferase reporter plasmid was transfected into HeLa-Bcl-xL cells. At 24 hrs after transfection, cells were incubated for an additional 24 hrs in the presence of 20% serum (+) with or without 50 μM LY294002, or in the absence of serum (−) with or without 100 ng/ml IGF-1. Luciferase activity was measured and normalized for transfection efficiency (β-galactosidase).
Additional experiments were performed to determine whether the bbc3 gene promoter was regulated by signal transduction pathways known to play a role in cell survival. A bbc3 gene promoter-luciferase reporter construct containing 0.9 kb of the bbc3 gene promoter region, was transfected into HeLa/Bcl-xL cells and the activity of the promoter measured by luciferase assays 48 hours after transfection. […] Thus, a PI-3 kinase dependent pathway controls, at least in part, the activity of the bbc3 gene promoter. […]
Luciferase assays were performed using the Dual-Light System (Tropix) for the combined detection of luciferase and β-galactosidase. […] Luciferase and β-galactosidase activities were measured 24 hours following transfection. […] Cell culture medium was changed to either DMEM containing 20% serum, or DMEM without serum, 24 hours following transfection and luciferase/β-galactosidase levels were measured after an additional 24 hours of incubation. […]

bbc3 mRNA [5] = assay: Northern blot of bbc3 mRNA in M1p53ts cells after temperature shift; assay type: cell-based, murine; conditions: M1p53ts cells shifted to 32° C. for 6 hours in the presence of IL-6
Excerpt: as §1
(Yonish-Rouach, E., et al., Nature 352:345–7 (1991)). […] (FIG. 3C). […] (FIG. 3C).
as §2, §3

Chain of GST-Bcl-xL (Q07817 whole entry): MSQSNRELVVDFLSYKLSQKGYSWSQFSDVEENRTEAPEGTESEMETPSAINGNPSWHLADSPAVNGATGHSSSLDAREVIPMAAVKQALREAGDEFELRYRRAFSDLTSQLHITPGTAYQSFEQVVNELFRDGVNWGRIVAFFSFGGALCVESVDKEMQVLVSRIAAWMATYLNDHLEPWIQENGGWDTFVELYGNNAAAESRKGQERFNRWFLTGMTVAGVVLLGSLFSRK

## 4-hydroxytamoxifen [4-OHT]
bbc3 mRNA [1]
  bbc3 mRNA levels: sufficient to induce bbc3 mRNA levels

## COc1cc2ncnc(Nc3cccc(Cl)c3)c2cc1OC [AG1478]
Bbc3 protein [2]
  ability of serum to suppress Bbc3 protein levels: blocked the ability of EGF and serum to suppress Bbc3 protein expression
Bbc3 protein [2]; serum-starved HT29 cells, 50 ng/ml EGF + 30 nM AG1478, 24 hrs
  ability of EGF to suppress Bbc3 protein expression: blocked the ability of EGF and serum to suppress Bbc3 protein expression

## COc1cccc(-c2cc(=O)c3ccccc3o2)c1N [PD98059]
Bbc3 protein [2]
  ability of serum to suppress Bbc3 protein levels: impaired the ability of serum to suppress Bbc3 protein expression

## COc1cc([C@@H]2c3cc4c(cc3[C@@H](O[C@@H]3O[C@@H]5CO[C@@H](C)O[C@H]5[C@H](O)[C@H]3O)[C@H]3COC(=O)[C@H]23)OCO4)cc(OC)c1O [etoposide]
bbc3 mRNA [3]
  bbc3 mRNA levels: rapid induction of bbc3 mRNA levels

## CC(C)(C)c1cc(C=C(C#N)C#N)cc(Br)c1O [tyrphostin AG1024]
Bbc3 protein [2]
  ability of serum to suppress Bbc3 protein levels: impaired the ability of serum to suppress Bbc3 protein expression

## CC(NC(=O)C(NC(=O)OCc1ccccc1)C(C)C)C(=O)NC(CC(=O)O)C(=O)CF (stereo not drawn) [z-VAD] (Cbz-Val-Ala-Asp-CH2F; configuration not given here)
Bbc3 protein [4]
  induction of Bbc3 protein levels by serum deprivation: no impact on the induction of Bbc3 protein levels
PARP
  cleavage of the caspase substrate PARP: prevented cleavage of the caspase substrate, PARP

## Bbc3 BH3 peptide: 20 amino acid synthetic peptide encompassing the Bbc3 BH3 domain (residues 133 to 152) (WAREIGAQLRRMADDLNAQY)
GST-Bcl-xL
  binding affinity to recombinant GST-Bcl-xL in vitro: affinity comparable to a previously characterized Bak BH3 peptide

## EGF: growth factor with broad anti-apoptotic activity (NSDSECPLSHDGYCLHDGVCMYIEALDKYACNCVVGYIGERCQYRDLKWWELR; UniProt P01133 971-1023, looked up)
Bbc3 protein [2]; serum-starved HT29 cells
  Bbc3 protein expression: strongly inhibited Bbc3 protein expression
Bax
  Bax protein level: no effect
Bcl-xL
  Bcl-xL protein level: no effect

## IGF-1: growth factor with broad anti-apoptotic activity
Bbc3 protein [2]; serum-starved HT29 cells
  Bbc3 protein expression: strongly inhibited Bbc3 protein expression
Bax
  Bax protein level: no effect
Bcl-xL
  Bcl-xL protein level: no effect
bbc3 gene promoter
  induction of bbc3 gene promoter activity (luciferase) in the absence of serum: substantially reduced

## IL-6: IL-6, which suppresses apoptosis induced by p53 in M1 cells
bbc3 mRNA [5]
  induction of bbc3 mRNA by wild-type p53: did not prevent induction of bbc3 mRNA

## PDGF
Bbc3 protein [2]; serum-starved HT29 cells
  Bbc3 protein expression: failed to suppress Bbc3 levels
